± gives the expanded uncertainty stated by the source.
Details: 298.15 K, 101.33 kPa, Liquid; for speed of sound: Sing-around technique in a fixed-path interferometer; for mass density: Vibrating tube method

Structure (SMILES)	speed of sound [m/s]	mass density [kg/m3]
Cc1ccccc1N [2-methylaniline]	1602.6 ± 2.4	994.351 ± 0.24
Cc1ccccn1 [2-methylpyridine]	1380.1 ± 2.9	939.802 ± 0.77
Cc1cccnc1 [3-methylpyridine]	1424 ± 2.3	952.002 ± 0.24
Cc1ccncc1 [4-methylpyridine]	1431.5 ± 2.3	950.179 ± 0.24
c1ccncc1 [pyridine]	1417.8 ± 2.3	978.249 ± 0.24
